Data as given in patent US6727066B2, “Genes expressed in treated human C3A liver cell cultures” (Incyte Corporation, priority 2000, dated 2004).

Tested on: human C3A liver cell cultures
Experiment: Microarray differential expression of cDNAs in treated human C3A liver cell cultures
Assay type: cell-based
Conditions: change vs untreated C3A cells
From the text: Incyte clones represent template sequences derived from the LIFESEQ GOLD assembled human sequence database (Incyte Genomics). In cases where more than one clone was available for a particular template, the 5′-most clone in the template was used on the microarray. The GENEALBUM GEM series 1-6 microarrays (Incyte Genomics) contain 52,616 array elements which represent 17,472 annotated clusters and 35,144 unannotated clusters. The HUMAN GENOME GEM series 1-3 microarrays (Incyte Genomics) contain 28,626 array elements which represent 10,068 annotated clusters and 18,558 unannotated clusters. For the UNIGEM series microarrays (Incyte Genomics), Incyte clones were mapped to non-redundant Unigene clusters (Unigene database (build 46), NCBI; Shuler (1997) J Mol Med 75:694-698), and the 5′ clone with the strongest BLAST alignment (at least 90% identity and 100 bp overlap) was chosen, verified, and used in the construction of the microarray. The UNIGEM V microarray (Incyte Genomics) contains 7075 array elements which represent 4610 annotated genes and 2,184 unannotated clusters.
To construct microarrays, cDNAs were amplified from bacterial cells using primers complementary to vector sequences flanking the cDNA insert. […] Amplified cDNAs were then purified using […]-400 columns (APB). Purified cDNAs were immobilized on polymer-coated glass slides. Glass microscope slides (Corning, Corning N.Y.) were cleaned by ultrasound in 0.1% SDS and acetone, with extensive distilled water washes between and after treatments. Glass slides were etched in 4% hydrofluoric acid (VWR Scientific Products, West Chester Pa.), washed thoroughly in distilled water, and coated with 0.05% aminopropyl silane (Sigma Aldrich) in 95% ethanol. Coated slides were cured in a 110° C. oven. cDNAs were applied to the coated glass substrate using a procedure described in U.S. Pat. No. 5,807,522. One microliter of the cDNA at an average concentration of 100 ng/ul was loaded into the open capillary printing element by a high-speed robotic apparatus which then deposited about 5 nl of cDNA per slide.
Microarrays were UV-crosslinked using a […] UV-crosslinker (Stratagene), and then washed at room temperature once in 0.2% SDS and three times in distilled water. Non-specific binding sites were blocked by incubation of microarrays in 0.2% casein in phosphate buffered saline (Tropix, Bedford Mass.) for 30 minutes at 60° C. followed by washes in 0.2% SDS and distilled water as before.
Early confluent C3A cells (ATTC, Manassas Va.) were treated with captopril (0.5, 2, 48, and 60 μg/ml) for 1, 3, and 6 hours. Early confluent C3A cells were treated with enalapril (0.5, 2, 48, and 60 μg/ml) for 1, 3, and 6 hours. Early confluent C3A cells were treated with LY294002 (0.5, 2, 15, and 25 μg/ml) for 1, 3, and 6 hours. Early confluent C3A cells were starved of insulin for 3 days prior to treatment, then treated with LY294002 (10 μM) for 2, 24, 36, and 72 hours in the presence of insulin. Early confluent C3A cells were treated with DES (1, 10, and 100 μM) for 1, 3, and 6 hours. Early confluent C3A cells were treated with dexamethasone (1 and 20 μM) for 0, 2, 6, and 24 hours. Early confluent C3A cells were treated with MCA (0.5 and 10 μM) for 2, 6, and 24 hours. In all cases mRNA from untreated early confluent cells were prepared in parallel as described below.
Cells were harvested and lysed in 1 ml of TRIZOL reagent (5×10^6 cells/ml; Life Technologies). The lysates were vortexed thoroughly and incubated at room temperature for 2-3 minutes and extracted with 0.5 ml chloroform. The extract was mixed, incubated at room temperature for 5 minutes, and centrifuged at 15,000 rpm for 15 minutes at 4° C. The aqueous layer was collected and an equal volume of isopropanol was added.

Compound: C[C@H](CS)C(=O)N1CCC[C@H]1C(=O)O [Captopril]
- expression level of cDNA clone 63038: −3.16
- expression level of cDNA clone 118501: 4.36
- expression level of cDNA clone 160822: 2.5
- expression level of cDNA clone 211389: −2.52
- expression level of cDNA clone 630625: 2.81
- expression level of cDNA clone 1315663: −2.84
- expression level of cDNA clone 1368834: 2.47
- expression level of cDNA clone 1379063: −4
- expression level of cDNA clone 1381654: 1.57
- expression level of cDNA clone 1448718: −3.93
- expression level of cDNA clone 1519431: 2.36
- expression level of cDNA clone 1559756: 1.56
- expression level of cDNA clone 1619292: −4.3
- expression level of cDNA clone 1696224: 3.28
- expression level of cDNA clone 1711151: 3.05
- expression level of cDNA clone 1846209: 1.81
- expression level of cDNA clone 1930235: 3.25
- expression level of cDNA clone 1998269: 2.99
- expression level of cDNA clone 2055569: −3.33
- expression level of cDNA clone 2055867: −2.61
- expression level of cDNA clone 2123516: 3.89
- expression level of cDNA clone 2360580: −2.71
- expression level of cDNA clone 2446289: −2.15
- expression level of cDNA clone 2757583: 4.03
- expression level of cDNA clone 2769888: −2.01
- expression level of cDNA clone 2820337: 2.29
- expression level of cDNA clone 2884613: 2.46
- expression level of cDNA clone 2912637: −2.38
- expression level of cDNA clone 2921991: −5.21
- expression level of cDNA clone 2933775: 5.14
- expression level of cDNA clone 3225977: 2.89
- expression level of cDNA clone 3240708: 2.02
- expression level of cDNA clone 3381870: 2.62
- expression level of cDNA clone 3679667: −2.09
- expression level of cDNA clone 3815422: −3.78
- expression level of cDNA clone 4107126: 2.88
